According to PubChem BioAssay (NCI):
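96-well plates; 48 h exposure; 5 concentrations. Endpoints by linear interpolation between flanking doses. Not reached: highest tested concentration assigned. Abbreviation: GI50, concentration required for 50% inhibition of growth. TGI: concentration producing complete growth inhibition.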

Key:
Assay in all cases: NCI anticancer screen, dose series, 48 h
786-0 renal = test system: 786-0 renal
A498 renal = test system: A498 renal
A549 NSCLC = test system: A549 NSCLC
ACHN renal = test system: ACHN renal
CAKI-1 renal = test system: CAKI-1 renal
CCRF-CEM leukemia = test system: CCRF-CEM leukemia
COLO 205 colon = test system: COLO 205 colon
DLD-1 colon = test system: DLD-1 colon
DMS 114 small cell lung = test system: DMS 114 small cell lung
DMS 273 small cell lung = test system: DMS 273 small cell lung
EKVX NSCLC = test system: EKVX NSCLC
HCC-2998 colon = test system: HCC-2998 colon
HCT-116 colon = test system: HCT-116 colon
HCT-15 colon = test system: HCT-15 colon
HL-60(TB) leukemia = test system: HL-60(TB) leukemia
HOP-18 NSCLC = test system: HOP-18 NSCLC
HOP-62 NSCLC = test system: HOP-62 NSCLC
HOP-92 NSCLC = test system: HOP-92 NSCLC
HT29 colon = test system: HT29 colon
IGROV1 ovarian = test system: IGROV1 ovarian
K-562 leukemia = test system: K-562 leukemia
KM12 colon = test system: KM12 colon
KM20L2 colon = test system: KM20L2 colon
LOX IMVI melanoma = test system: LOX IMVI melanoma
LXFL 529 NSCLC = test system: LXFL 529 NSCLC
M14 melanoma = test system: M14 melanoma
M19-MEL melanoma = test system: M19-MEL melanoma
MALME-3M melanoma = test system: MALME-3M melanoma
MOLT-4 leukemia = test system: MOLT-4 leukemia
NCI-H226 lung = test system: NCI-H226 lung
NCI-H23 lung = test system: NCI-H23 lung
NCI-H460 lung = test system: NCI-H460 lung
OVCAR-3 ovarian = test system: OVCAR-3 ovarian
OVCAR-4 ovarian = test system: OVCAR-4 ovarian
OVCAR-5 ovarian = test system: OVCAR-5 ovarian
OVCAR-8 ovarian = test system: OVCAR-8 ovarian
RPMI-8226 leukemia = test system: RPMI-8226 leukemia
SF-268 CNS = test system: SF-268 CNS
SF-295 CNS = test system: SF-295 CNS
SF-539 CNS = test system: SF-539 CNS
SK-MEL-2 melanoma = test system: SK-MEL-2 melanoma
SK-MEL-28 melanoma = test system: SK-MEL-28 melanoma
SK-MEL-5 melanoma = test system: SK-MEL-5 melanoma
SK-OV-3 ovarian = test system: SK-OV-3 ovarian
SN12C renal = test system: SN12C renal
SNB-19 CNS = test system: SNB-19 CNS
SNB-75 CNS = test system: SNB-75 CNS
SNB-78 CNS = test system: SNB-78 CNS
SR leukemia = test system: SR leukemia
SW-620 colon = test system: SW-620 colon
TK-10 renal = test system: TK-10 renal
U251 CNS = test system: U251 CNS
UACC-257 melanoma = test system: UACC-257 melanoma
UACC-62 melanoma = test system: UACC-62 melanoma
UO-31 renal = test system: UO-31 renal
XF 498 CNS = test system: XF 498 CNS

SMILES: COc1cccc(/C=N/[N-]C(=O)c2ccncc2)c1[O-].[Ni+2].[OH3+]
- GI50 (786-0 renal): > 100 µM
- TGI (786-0 renal): > 100 µM
- GI50 (A498 renal): > 100 µM
- TGI (A498 renal): > 100 µM
- GI50 (A549 NSCLC): > 100 µM
- TGI (A549 NSCLC): > 100 µM
- GI50 (ACHN renal): > 100 µM
- TGI (ACHN renal): > 100 µM
- GI50 (CAKI-1 renal): > 100 µM
- TGI (CAKI-1 renal): > 100 µM
- GI50 (CCRF-CEM leukemia): > 100 µM
- TGI (CCRF-CEM leukemia): > 100 µM
- GI50 (COLO 205 colon): > 100 µM
- TGI (COLO 205 colon): > 100 µM
- GI50 (DLD-1 colon): > 100 µM
- TGI (DLD-1 colon): > 100 µM
- GI50 (DMS 114 small cell lung): > 100 µM
- TGI (DMS 114 small cell lung): > 100 µM
- GI50 (DMS 273 small cell lung): > 100 µM
- TGI (DMS 273 small cell lung): > 100 µM
- GI50 (EKVX NSCLC): > 100 µM
- TGI (EKVX NSCLC): > 100 µM
- GI50 (HCC-2998 colon): > 100 µM
- TGI (HCC-2998 colon): > 100 µM
- GI50 (HCT-116 colon): > 100 µM
- TGI (HCT-116 colon): > 100 µM
- GI50 (HCT-15 colon): > 100 µM
- TGI (HCT-15 colon): > 100 µM
- GI50 (HL-60(TB) leukemia): > 100 µM
- TGI (HL-60(TB) leukemia): > 100 µM
- GI50 (HOP-18 NSCLC): > 100 µM
- TGI (HOP-18 NSCLC): > 100 µM
- GI50 (HOP-62 NSCLC): > 100 µM
- TGI (HOP-62 NSCLC): > 100 µM
- GI50 (HOP-92 NSCLC): > 100 µM
- TGI (HOP-92 NSCLC): > 100 µM
- GI50 (HT29 colon): > 100 µM
- TGI (HT29 colon): > 100 µM
- GI50 (IGROV1 ovarian): > 100 µM
- TGI (IGROV1 ovarian): > 100 µM
- GI50 (K-562 leukemia): > 100 µM
- TGI (K-562 leukemia): > 100 µM
- GI50 (KM12 colon): > 100 µM
- TGI (KM12 colon): > 100 µM
- GI50 (KM20L2 colon): > 100 µM
- TGI (KM20L2 colon): > 100 µM
- GI50 (LOX IMVI melanoma): > 100 µM
- TGI (LOX IMVI melanoma): > 100 µM
- GI50 (LXFL 529 NSCLC): > 100 µM
- TGI (LXFL 529 NSCLC): > 100 µM
- GI50 (M14 melanoma): > 100 µM
- TGI (M14 melanoma): > 100 µM
- GI50 (M19-MEL melanoma): > 100 µM
- TGI (M19-MEL melanoma): > 100 µM
- GI50 (MALME-3M melanoma): > 100 µM
- TGI (MALME-3M melanoma): > 100 µM
- GI50 (MOLT-4 leukemia): > 100 µM
- TGI (MOLT-4 leukemia): > 100 µM
- GI50 (NCI-H226 lung): > 100 µM
- TGI (NCI-H226 lung): > 100 µM
- GI50 (NCI-H23 lung): > 100 µM
- TGI (NCI-H23 lung): > 100 µM
- GI50 (NCI-H460 lung): > 100 µM
- TGI (NCI-H460 lung): > 100 µM
- GI50 (OVCAR-3 ovarian): > 100 µM
- TGI (OVCAR-3 ovarian): > 100 µM
- GI50 (OVCAR-4 ovarian): > 100 µM
- TGI (OVCAR-4 ovarian): > 100 µM
- GI50 (OVCAR-5 ovarian): > 100 µM
- TGI (OVCAR-5 ovarian): > 100 µM
- GI50 (OVCAR-8 ovarian): > 100 µM
- TGI (OVCAR-8 ovarian): > 100 µM
- GI50 (RPMI-8226 leukemia): > 100 µM
- TGI (RPMI-8226 leukemia): > 100 µM
- GI50 (SF-268 CNS): > 100 µM
- TGI (SF-268 CNS): > 100 µM
- GI50 (SF-295 CNS): > 100 µM
- TGI (SF-295 CNS): > 100 µM
- GI50 (SF-539 CNS): > 100 µM
- TGI (SF-539 CNS): > 100 µM
- GI50 (SK-MEL-2 melanoma): > 100 µM
- TGI (SK-MEL-2 melanoma): > 100 µM
- GI50 (SK-MEL-28 melanoma): > 100 µM
- TGI (SK-MEL-28 melanoma): > 100 µM
- GI50 (SK-MEL-5 melanoma): > 100 µM
- TGI (SK-MEL-5 melanoma): > 100 µM
- GI50 (SK-OV-3 ovarian): > 100 µM
- TGI (SK-OV-3 ovarian): > 100 µM
- GI50 (SN12C renal): > 100 µM
- TGI (SN12C renal): > 100 µM
- GI50 (SNB-19 CNS): > 100 µM
- TGI (SNB-19 CNS): > 100 µM
- GI50 (SNB-75 CNS): > 100 µM
- TGI (SNB-75 CNS): > 100 µM
- GI50 (SNB-78 CNS): > 100 µM
- TGI (SNB-78 CNS): > 100 µM
- GI50 (SR leukemia): > 100 µM
- TGI (SR leukemia): > 100 µM
- GI50 (SW-620 colon): > 100 µM
- TGI (SW-620 colon): > 100 µM
- GI50 (TK-10 renal): > 100 µM
- TGI (TK-10 renal): > 100 µM
- GI50 (U251 CNS): > 100 µM
- TGI (U251 CNS): > 100 µM
- GI50 (UACC-257 melanoma): > 100 µM
- TGI (UACC-257 melanoma): > 100 µM
- GI50 (UACC-62 melanoma): > 100 µM
- TGI (UACC-62 melanoma): > 100 µM
- GI50 (UO-31 renal): > 100 µM
- TGI (UO-31 renal): > 100 µM
- GI50 (XF 498 CNS): > 100 µM
- TGI (XF 498 CNS): > 100 µM
